The text below walks through data of PMC11148772, “Inhibition of protein translational machinery in triple-negative breast cancer as a promising therapeutic strategy” (Cell Reports Medicine, 2024).

For assay [1], the system named is TNBC cells (MDA-MB-231, MDA-MB-468, SUM159). As to the kind of experiment: Immunoblot assay of cell lysates. The settings on record: MG132 10 μM + SU056 1 μM, 15 h, MDA-MB-231 and MDA-MB-468. The class given is cell-based, human.
Assay [2] addresses T1, YB-1 (Homo sapiens, UniProt P67809). Description: Pulldown assay with biotinylated SU056, MDA-MB-468. It is filed as binding. More on the design: endogenous in cells. Particulars: 2 μM, 2 h. The method, then:
(§1) Protein pulldown assay was performed using biotinylated SU056. MDA-MB-231 and MDA-MB-468 cells were treated with 2 μM biotinylated SU056 for 2 h. After 2 h of treatment, cells were collected and lysed using M-PER lysis solution (Thermo Scientific, #78503), supplemented with Halt protease and phosphatase inhibitor cocktail (Thermo Scientific, #78440). Protein lysate from Biotinylated SU056 treated cells were treated with RNase (10 μg/mL) for 15 min at 37°C. 600 μg protein was incubated with magnetic conjugate streptavidin bead (CST, #5947) at room temperature on rocker for 30 min. Biotin-streptavidin conjugates were pulled down and washed using a magnetic rack. After three washes, beads were resuspended in 2X SDS sample buffer followed by heating at 90°C–100°C for 5 min. Samples were resolved and probed with anti-YB-1 and anti-RPL11 antibodies as described in immunoblotting. Samples of protein lysates from MDA-MB-231 and MDA-MB-468 without biotinylated SU056 (input), samples from pulldown using only biotin and only streptavidin beads were used as experimental controls.

Assay [3] concerns the target T1, YB-1. As to the kind of experiment: Pulldown assay with biotinylated SU056, MDA-MB-231. The class given is binding. Further details: endogenous in cells; host or cells: MDA-MB-231. Particulars: 2 μM, 2 h. The method, then:
as §1

Residues, ends and D or L forms follow the SMILES beside them. *: point of attachment. Cbz = O=C(OCc1ccccc1)*

As for `CC(C)C[C@@H](C=O)NC(=O)[C@H](CC(C)C)NC(=O)[C@H](CC(C)C)NC(=O)OCc1ccccc1` [MG132, reference compound] (Cbz-Leu-Leu-Leu-aldehyde), in assay [1], the “effect on SU056-induced decrease in levels of YB-1 and RPL11” value is “partially reversed”.
Consider `O=C(CCCC[C@@H]1SC[C@@H]2NC(=O)N[C@@H]21)NCCSSCCC(=O)OCCN1C2=C(C(=O)OC2)C(c2cccc(F)c2)c2cc3c(cc21)OCO3` (stereo partly drawn) [biotinylated SU056, 2-(9-(3-fluorophenyl)-8-oxo-6,9-dihydro-[1,3]dioxolo[4,5-g]furo[3,4-b]quinolin-5(8H)-yl)ethyl 3-((2-(5-((3aS,4S,6aR)-2-oxohexahydro-1H-thieno[3,4-day]imidazol-4-yl)pentanamido)ethyl)disulfaneyl)propanoate], for which the “interaction with YB-1 (pull-down)” value on YB-1 [2] and at YB-1 [3] was “physically interacts” throughout. Also, the “increase of interaction with YB-1 in RNase-treated protein lysates” value on YB-1 [2] (RNase 10 μg/mL) came to 18.76 fold; at YB-1 [3] (RNase 10 μg/mL) it was 3.13 fold.
